From patent publication US7009052B2, “Sulfonamide derivatives” (Warner Lambert Company LLC, priority 2003, dated 2006) come the findings set out here.

A word on the IC50: it is the concentration that gives 50% inhibition. Low values mean greater potency in that assay, high ones weaker potency in that assay.

Each structure is given as a SMILES string. Bounds are passed on as bounds.

This test deals with T1, androgen receptor (Homo sapiens, UniProt P10275).
T1 sequence (P10275 1-920 Q868H): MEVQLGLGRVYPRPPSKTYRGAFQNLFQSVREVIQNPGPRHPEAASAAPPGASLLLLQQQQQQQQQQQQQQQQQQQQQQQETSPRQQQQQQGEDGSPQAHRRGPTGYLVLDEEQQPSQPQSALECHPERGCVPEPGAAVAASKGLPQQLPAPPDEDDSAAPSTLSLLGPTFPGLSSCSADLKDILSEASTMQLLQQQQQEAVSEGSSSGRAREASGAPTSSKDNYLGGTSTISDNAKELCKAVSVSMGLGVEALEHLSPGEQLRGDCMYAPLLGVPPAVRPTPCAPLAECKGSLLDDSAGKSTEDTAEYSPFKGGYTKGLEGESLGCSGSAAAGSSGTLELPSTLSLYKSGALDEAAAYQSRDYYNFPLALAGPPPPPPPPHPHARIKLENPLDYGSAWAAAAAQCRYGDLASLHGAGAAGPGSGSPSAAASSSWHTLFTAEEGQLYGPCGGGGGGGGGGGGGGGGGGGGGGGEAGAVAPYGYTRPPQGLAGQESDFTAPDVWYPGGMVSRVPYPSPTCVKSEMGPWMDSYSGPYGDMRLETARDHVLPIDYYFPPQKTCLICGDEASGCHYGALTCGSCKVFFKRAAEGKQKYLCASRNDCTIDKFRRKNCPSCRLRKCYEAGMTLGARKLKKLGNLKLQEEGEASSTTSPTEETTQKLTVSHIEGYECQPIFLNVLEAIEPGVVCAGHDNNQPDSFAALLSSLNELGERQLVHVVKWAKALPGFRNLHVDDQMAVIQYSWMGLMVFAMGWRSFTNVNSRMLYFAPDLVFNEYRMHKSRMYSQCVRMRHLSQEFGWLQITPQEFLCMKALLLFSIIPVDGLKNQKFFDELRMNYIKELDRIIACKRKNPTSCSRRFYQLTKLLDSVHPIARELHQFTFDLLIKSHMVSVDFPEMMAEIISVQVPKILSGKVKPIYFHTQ
The experiment in a line: AR Antagonist Cell Assay (MMTV-luciferase reporter, DHT-induced). The test is classed as cell-based. As to conditions: MDA-MB453-MMTV clone 54-19 cells, 100 pM DHT, 17 hr. The procedure: The compounds ability to antagonize the effects of androgen on the androgen receptor were determined in the protocol described immediately below.
Experimental Procedure for AR Antagonist Cell Assay
Cell line: MDA-MB453-MMTV clone 54-19. This cell line is a stable transfected cell line with MDA-MB453 cell background (human breast tumor cell expressing high level of androgen receptor). A MMTV minimal promoter containing ARE was first cloned in front of a firefly luciferase reporter gene. Then the cascade was cloned into transfection vector pUV120puro. Electroporation method was used for transfecting MDA-MB-453 cell. Puromycin resistant stable cell line was selected.
Cell Culture Media and Reagents:
Culture medium: DMEM (high glucose, Gibco cat #: 11960-044), 10% FBS, and 1% L-glutamine
Plating medium: DMEM (phenol red free), 10% charcoal treated HyClone serum, 1% L-glutamine
Assay medium: DMEM (phenol red free), 1% charcoal treated HyClone serum, 1% L-glutamine, and 1% penicillin/streptomycin
3× luciferase buffer: 2% beta-mercaptoethanol, 0.6% ATP, 0.0135% luciferine in cell lysis buffer
• 1. Cells are maintained in culture medium, splitting cells when they reach 80–90% confluence • 2. To test compounds, 10,000 cells/well are plated to opaque 96 cell culture plate in 100 ul/well plating medium, culture for overnight at 37° C. in cell culture incubator • 3. Carefully remove plating medium, then add 80 ul/well of pre-warmed assay medium, add 10 ul/well testing compound (final concentration at 10 uM or 1 uM), incubate at 37° C. for 30 minutes • 4. Add 10 ul/well freshly prepared DHT (final concentration at 100 pM) to each well, incubate at 37° C. for 17 hr (overnight) • 5. Add 50 ul/well 3× luciferase buffer, incubate at room temperature for 5 minutes, then count on Luminometer The fold induction over background by 100 pM DHT in the absence of testing compounds is standardized as 100% and experimental result is expressed as percentage of inhibition by testing compounds. TABLE3
In general terms: In a reporter assay the amount or activity of a reporter protein is the signal.
`COc1ccccc1NS(=O)(=O)c1ccc2[nH]c(=O)cc(C(F)(F)F)c2c1` [Example 92, 2-Oxo-4-trifluoromethyl-1,2-dihydroquinoline-6-sulfonic acid(2-methoxyphenyl)amide] displayed an IC50 greater than 10 µM.

The compound `CCOC(=O)Cc1ccc(NS(=O)(=O)c2ccc3c(c2)c(C(F)(F)F)cc(=O)n3C)cc1` [Example 42, [4-(1-Methyl-2-oxo-4-trifluoromethyl-1,2-dihydroquinoline-6-sulfonylamino)phenyl]aceticacid ethyl ester] came in with an IC50 greater than 10 µM.

Turning to `Cn1c(=O)cc(C(F)(F)F)c2cc(S(=O)(=O)NCCc3cccs3)ccc21` [Example 54, 1-Methyl-2-oxo-4-trifluoromethyl-1,2-dihydroquinoline-6-sulfonicacid (2-thiophen-2-ylethyl)amide], the IC50 came out at 5.68 µM. That is a single-digit micromolar value.

In turn, `CC(=O)c1cccc(NS(=O)(=O)c2ccc3c(c2)c(C(F)(F)F)cc(=O)n3C)c1` [Example 24, 1-Methyl-2-oxo-4-trifluoromethyl-1,2-dihydroquinoline-6-sulfonicacid (3-acetylphenyl)amide] yielded an IC50 of 4.23 µM.

`O=c1cc(C(F)(F)F)c2cc(S(=O)(=O)N[C@H]3[C@@H]4CC[C@@H](C4)[C@H]3CO)ccc2[nH]1` [Example 148, 2-Oxo-4-trifluoromethyl-1,2-dihydroquinoline-6-sulfonic acid(3-hydroxy-methylbicyclo[2.2.1]hept-2-yl)] registered an IC50 of 2.26 µM.

As for `CCCCN(CC)S(=O)(=O)c1ccc2[nH]c(=O)cc(C(F)(F)F)c2c1` [Example 69, 2-Oxo-4-trifluoromethyl-1,2-dihydroquinoline-6-sulfonic acidbutylethylamide], the IC50 was 0.2 µM.

`Cc1ccc(-c2ccccc2)cc1NS(=O)(=O)c1ccc2[nH]c(=O)cc(C(F)(F)F)c2c1` [Example 99, 2-Oxo-4-trifluoromethyl-1,2-dihydroquinoline-6-sulfonic acid(4-methylbiphenyl-3-yl)amide] yielded an IC50 greater than 10 µM.

`Cn1c(=O)cc(C(F)(F)F)c2cc(S(=O)(=O)Nc3ccccc3CO)ccc21` [Example 19, 1-Methyl-2-oxo-4-trifluoromethyl-1,2-dihydroquinoline-6-sulfonicacid(2-hydroxymethylphenyl)amide] yielded an IC50 greater than 10 µM.

Take `Cc1cccc(Cl)c1CNS(=O)(=O)c1ccc2[nH]c(=O)cc(C(F)(F)F)c2c1` [Example 144, 2-Oxo-4-trifluoromethyl-1,2-dihydroquinoline-6-sulfonic acid2-chloro-6-methylbenzylamide]: the IC50 worked out at 5.53 µM.

`CC(C)CCNS(=O)(=O)c1ccc2[nH]c(=O)cc(C(F)(F)F)c2c1` [Example 121, 2-Oxo-4-trifluoromethyl-1,2-dihydroquinoline-6-sulfonic acid(3-methylbutyl)amide] came in with a concentration for half-maximal inhibition (IC50) of 0.28 µM. This IC50 lies about 20-fold lower than the previous one.

As for `O=c1cc(C(F)(F)F)c2cc(S(=O)(=O)Nc3ccccc3Sc3ccccc3)ccc2[nH]1` [Example 115, 2-Oxo-4-trifluoromethyl-1,2-dihydroquinoline-6-sulfonic acid(2-phenylsulfanylphenyl)amide], it took 8.13 µM to reach half-maximal inhibition (IC50).

In turn, `O=c1cc(C(F)(F)F)c2cc(S(=O)(=O)NCc3cccc(Cl)c3)ccc2[nH]1` [Example 138, 2-Oxo-4-trifluoromethyl-1,2-dihydroquinoline-6-sulfonic acid3-chlorobenzylamide] displayed an IC50 greater than 10 µM.

`Cn1c(=O)cc(C(F)(F)F)c2cc(S(=O)(=O)Nc3cccc4cccnc34)ccc21` [Example 34, 1-Methyl-2-oxo-4-trifluoromethyl-1,2-dihydroquinoline-6-sulfonicacid quinolin-8-ylamide]: the IC50 was greater than 10 µM.

`O=c1cc(C(F)(F)F)c2cc(S(=O)(=O)NC3CCCC3)ccc2[nH]1` [Example 120, 2-Oxo-4-trifluoromethyl-1,2-dihydroquinoline-6-sulfonic acidcyclopentylamide] returned a concentration for half-maximal inhibition (IC50) of 0.82 µM.

`CCc1ccc(NS(=O)(=O)c2ccc3c(c2)c(C(F)(F)F)cc(=O)n3C)cc1` [Example 17, 1-Methyl-2-oxo-4-trifluoromethyl-1,2-dihydroquinoline-6-sulfonicacid (4-ethylphenyl)amide] returned an IC50 of 0.87 µM.

`Cc1ccccc1CNS(=O)(=O)c1ccc2[nH]c(=O)cc(C(F)(F)F)c2c1` [Example 124, 2-Oxo-4-trifluoromethyl-1,2-dihydroquinoline-6-sulfonic acid2-methylbenzylamide] returned an IC50 of 4.61 µM.

Consider `N#Cc1cccc(NS(=O)(=O)c2ccc3[nH]c(=O)cc(C(F)(F)F)c3c2)c1` [Example 87, 2-Oxo-4-trifluoromethyl-1,2-dihydroquinoline-6-sulfonic acid(3-cyanophenyl)amide], for which the half-maximal inhibitory concentration (IC50) is 3.55 µM.

As for `CCc1cccc(NS(=O)(=O)c2ccc3c(c2)c(C(F)(F)F)cc(=O)n3C)c1` [Example 16, 1-Methyl-2-oxo-4-trifluoromethyl-1,2-dihydroquinoline-6-sulfonicacid (3-ethylphenyl)amide], inhibition was half-maximal at 5.03 µM (IC50).

Consider `Cn1c(=O)cc(C(F)(F)F)c2cc(S(=O)(=O)N(Cc3ccccc3)Cc3ccccc3)ccc21` [Example 9, 1-Methyl-2-oxo-4-trifluoromethyl-1,2-dihydroquinoline-6-sulfonicacid dibenzylamide], for which the 50% inhibitory concentration (IC50) was greater than 10 µM.

Compound `O=c1cc(C(F)(F)F)c2cc(S(=O)(=O)NCc3ccccc3Br)ccc2[nH]1` [Example 156, 2-Oxo-4-trifluoromethyl-1,2-dihydroquinoline-6-sulfonic acid2-bromobenzylamide] yielded an IC50 of 2.16 µM. In other words, the single-digit micromolar range.

On to `Cn1c(=O)cc(C(F)(F)F)c2cc(S(=O)(=O)Nc3ccc(Cl)cc3)ccc21` [Example 31, 1-Methyl-2-oxo-4-trifluoromethyl-1,2-dihydroquinoline-6-sulfonicacid (4-chlorophenyl)amide], for which half-maximal inhibition (IC50) was put at 1.32 µM.

Compound `CN(c1ccccc1)S(=O)(=O)c1ccc2c(c1)c(C(F)(F)F)cc(=O)n2C` [Example 12, 1-Methyl-2-oxo-4-trifluoromethyl-1,2-dihydroquinoline-6-sulfonicacid methylphenylamide] came in with an IC50 greater than 10 µM.

`Cn1c(=O)cc(C(F)(F)F)c2cc(S(=O)(=O)NCCc3ccccc3)ccc21` [Example 50, 1-Methyl-2-oxo-4-trifluoromethyl-1,2-dihydroquinoline-6-sulfonicacid phenethylamide] came in with an IC50 of 1.55 µM.

The compound `CC(C)(Cc1ccc(F)cc1)NS(=O)(=O)c1ccc2[nH]c(=O)cc(C(F)(F)F)c2c1` [Example 150, 2-Oxo-4-trifluoromethyl-1,2-dihydroquinoline-6-sulfonic acid[2-(4-fluorophenyl)-1,1-dimethylethyl]amide] registered an IC50 of 1.83 µM.

In turn, `O=c1cc(C(F)(F)F)c2cc(S(=O)(=O)Nc3cccc(C(F)(F)F)c3)ccc2[nH]1` [Example 109, 2-Oxo-4-trifluoromethyl-1,2-dihydroquinoline-6-sulfonic acid(3-trifluoromethylphenyl)amide] registered an IC50 of 0.21 µM. Compared with the last compound, the IC50 is about 8.7-fold lower.

As for `O=c1cc(C(F)(F)F)c2cc(S(=O)(=O)NCc3ccccc3Sc3ccccc3CO)ccc2[nH]1` [Example 155, 2-Oxo-4-trifluoromethyl-1,2-dihydroquinoline-6-sulfonic acid2-(2-hydroxymethyl-phenylsulfanyl)benzylamide], the IC50 is 1.94 µM.

In the case of `COc1cc(CNS(=O)(=O)c2ccc3[nH]c(=O)cc(C(F)(F)F)c3c2)cc(OC)c1` [Example 149, 2-Oxo-4-trifluoromethyl-1,2-dihydroquinoline-6-sulfonic acid3,5-dimethoxybenzylamide], the IC50 was greater than 10 µM.
